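In this assay, cells in 96-well plates receive the compound at five concentrations for 48 hours. Endpoints are linearly interpolated between the surrounding concentrations. GI50 is the concentration that inhibits growth by half.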 Activity calls are given as the source filed them. No stated cut-off is given here; in the data, active = GI50 up to about 1.1 µM and inactive = higher.
What was measured:
Test in all cases: growth of human tumour cells (NCI), 48 h
[1] = tested on: CAKI-1
[2] = tested on: HCT-116
[3] = tested on: HL-60
[4] = tested on: HOP-92
[5] = tested on: K562
[6] = tested on: M14
[7] = tested on: M19-MEL
[8] = tested on: Malme-3M
[9] = tested on: NCI-H522
[10] = tested on: SF-295
[11] = tested on: SF-539
[12] = tested on: SK-MEL-2
[13] = tested on: SR
[14] = tested on: UACC-62
[15] = tested on: RXF 393
[16] = tested on: MDA-MB-231
[17] = tested on: MDA-MB-435
[18] = tested on: MDA-N
[19] = tested on: PC-3
[20] = tested on: T47D

Compound | GI50 [1] | GI50 [2] | GI50 [3] | GI50 [4] | GI50 [5] | GI50 [6] | GI50 [7] | GI50 [8] | GI50 [9] | GI50 [10] | GI50 [11] | GI50 [12] | GI50 [13] | GI50 [14] | GI50 [15] | GI50 [16] | GI50 [17] | GI50 [18] | GI50 [19] | GI50 [20]
O=S1(=O)CCCS(=O)(=O)C(c2ccccc2)=C1c1ccccc1 | 76.7 µM (inactive) | 30.5 µM (inactive) | 18.6 µM (inactive) | 28.2 µM (inactive) | 31.9 µM (inactive) | 26.9 µM (inactive) | 70.5 µM (inactive) | 34.2 µM (inactive) | 27.5 µM (inactive) | > 10 µM (inactive) | > 100 µM (inactive) | 42.6 µM (inactive) | 31.6 µM (inactive) | 29 µM (inactive) | – | – | – | – | – | –
CC1(Br)C(=O)NC(=O)N([C@H]2C[C@H](O)[C@@H](CO)O2)C1N=[N+]=[N-] (stereo partly drawn) | > 100 µM (inactive) | > 100 µM (inactive) | > 100 µM (inactive) | > 100 µM (inactive) | > 100 µM (inactive) | > 100 µM (inactive) | > 100 µM (inactive) | > 100 µM (inactive) | > 100 µM (inactive) | > 100 µM (inactive) | > 100 µM (inactive) | > 100 µM (inactive) | > 100 µM (inactive) | > 100 µM (inactive) | > 100 µM (inactive) | – | – | – | – | –
CC(=O)/C(=C\c1ccccc1O)C(=O)Nc1ccccc1C | 16 µM (inactive) | 24.4 µM (inactive) | 9.64 µM (inactive) | 15.9 µM (inactive) | 4.06 µM (inactive) | 17.5 µM (inactive) | 27.7 µM (inactive) | 17.5 µM (inactive) | > 10 µM (inactive) | 23.2 µM (inactive) | 18.5 µM (inactive) | 18.9 µM (inactive) | 13.1 µM (inactive) | 20 µM (inactive) | 19.1 µM (inactive) | – | – | – | – | –
CN1CC[C@]2(C)c3c(O)cccc3CC3CCCC1C32C (stereo partly drawn) | > 100 µM (inactive) | > 100 µM (inactive) | 96.2 µM (inactive) | 89.7 µM (inactive) | 91.6 µM (inactive) | > 100 µM (inactive) | > 100 µM (inactive) | > 100 µM (inactive) | > 100 µM (inactive) | > 100 µM (inactive) | > 100 µM (inactive) | > 100 µM (inactive) | > 100 µM (inactive) | > 100 µM (inactive) | > 100 µM (inactive) | – | – | – | – | –
O=P1(N(CCCl)CCCl)NCCCO1 (stereo not drawn) [CYCLOPHOSPHAMIDE ANHYDROUS] | > 192 µM (inactive) | > 250 µM (inactive) | 183 µM (inactive) | > 246 µM (inactive) | 213 µM (inactive) | > 250 µM (inactive) | 218 µM (inactive) | > 250 µM (inactive) | > 250 µM (inactive) | 169 µM (inactive) | > 250 µM (inactive) | > 238 µM (inactive) | > 250 µM (inactive) | > 250 µM (inactive) | > 250 µM (inactive) | > 250 µM (inactive) | > 250 µM (inactive) | > 250 µM (inactive) | > 250 µM (inactive) | > 88.7 µM (inactive)
O=[PH](O)c1cccnc1 | > 100 µM (inactive) | > 100 µM (inactive) | > 100 µM (inactive) | > 100 µM (inactive) | > 100 µM (inactive) | > 100 µM (inactive) | > 100 µM (inactive) | > 100 µM (inactive) | > 100 µM (inactive) | > 100 µM (inactive) | > 100 µM (inactive) | – | > 100 µM (inactive) | > 100 µM (inactive) | > 100 µM (inactive) | – | – | – | – | –
COC(=O)C12OCC34C(CC5C(C)C6=CC(=O)OC6=CC5(C)C3C(O)C1O)OC(=O)C(OC(C)=O)C24 (stereo not drawn) | 9.91 µM (inactive) | 13.7 µM (inactive) | 12.1 µM (inactive) | 16.9 µM (inactive) | 14.7 µM (inactive) | 14.3 µM (inactive) | 15.4 µM (inactive) | 13 µM (inactive) | 8.91 µM (inactive) | 23 µM (inactive) | 15.2 µM (inactive) | 10.1 µM (inactive) | 18.3 µM (inactive) | 12.9 µM (inactive) | 13.7 µM (inactive) | – | – | – | – | –
CCOCC(=O)N[C@H]1CCc2cc(OC)c(OC)c(OC)c2-c2ccc(SC)c(=O)cc21 | < 0.01 µM (active) | < 0.01 µM (active) | 0.0217 µM (active) | < 0.01 µM (active) | 0.0146 µM (active) | < 0.01 µM (active) | < 0.01 µM (active) | < 0.01 µM (active) | < 0.01 µM (active) | < 0.01 µM (active) | < 0.01 µM (active) | < 0.01 µM (active) | < 0.01 µM (active) | < 0.01 µM (active) | < 0.01 µM (active) | < 0.01 µM (active) | < 0.01 µM (active) | < 0.01 µM (active) | < 0.0327 µM (active) | > 100 µM (inactive)
